Here are results for one molecule from US20220168302A1, “SALTS OF A COMPOUND, CRYSTAL FORMS OF THE SALTS AND PREPARATION METHOD AND USE THEREOF” (Gan & Lee Pharmaceuticals Co., Ltd., priority 2019, published 2022).

Structures are written as SMILES. ≈ marks a conversion by molar mass, not a printed value.

Holding throughout (format): physicochemical
The nature of series [1]: Dynamic moisture adsorption (DVS) hygroscopicity test. How it is done: The moisture adsorption capacities of the representative salts and the free base of the above Examples and Comparative Examples were tested when the humidity reached 80% RH through a dynamic moisture adsorption (DVS) test at 25° C., so as to compare the hygroscopicities.
Experimental results: the test results are shown in Table 13, wherein, >15% means very hygroscopic, 2% to 15% means hygroscopic, 0.2% to 2% means slightly hygroscopic, and <0.2% means almost non-hygroscopic.

The nature of series [2]: Solubility test in water, FaSSIF and FeSSIF (24 h, 37° C., HPLC concentration). As to conditions: stated in background.
Test in series [3]: as above
As to conditions: initial feeding amount 10 mg/ml. The procedure: Experimental method: the solubility test was carried out in three solvents including water, fasted state simulated intestinal fluid (FaSSIF) and fed state simulated intestinal fluid (FeSSIF), to evaluate the solubilities of the salts of the present invention.
In the experiment, the sample and the solvent were mixed in a centrifuge tube (the initial feeding amount was 10 mg/ml), then the centrifuge tube was sealed and fixed on a rotating disk with a rotation speed of 25 rpm, and sampling was performed after rotating and mixing for 24 h at 37° C. The turbid sample was subjected to centrifugal separation, and the filtered supernatant was measured for HPLC concentration. If the sample solution was clear, the concentration of the obtained solution was measured.

A short description of series [4]: Solid-state stability test, one week, HPLC purity. The conditions noted are these: for HPLC purity 1 week: open container. How it is done: Experimental method: appropriate amount of samples were respectively weighed and placed in open containers under the conditions of light illumination of 4500 lux, 25° C./60% RH and 40° C./75% RH to perform solid-state stability test evaluation for one week. One week later, the purities of the test samples were tested by HPLC to detect the change of purity. Three groups of parallel tests were set for each test condition.
High performance liquid chromatograms were collected on an Agilent 1100 HPLC.

The term solubility denotes how much of the substance goes into solution per volume. Consider `CC1=Nc2c(F)cc(-c3nc(Nc4ccc(C5CCN(C)CC5)cn4)ncc3F)cc2C12CCCC2` [Free base crystal form A, 5-fluoro-4-(7′-fluoro-2′-methylspiro[cyclopentane-1,3′-indol]-5′-yl)-N-(5-(1-methylpiperidin-4-yl)pyridin-2-yl)pyrimidine-2-amine, reference compound], for which the “Hygroscopicity (moisture adsorption capacity)” value in series [1] (DVS, 25° C./80% RH) was 0.10%. Also, in series [1] (XRPD before and after DVS test), the “Whether the crystal form has a change” value is reported as “No change”. Also, the solubility in series [2] is 75 µg/mL (≈ 154 µM). Also, in series [3] (FeSSIF, 37 °C, fessif, thermodynamic from solid, fed state simulated intestinal fluid, read-out: Solubility in FeSSIF), the solubility at 24 h was 10200 µg/mL (≈ 20900 µM). The “Solubility in FaSSIF” value in series [3] (fasted state simulated intestinal fluid) was 190 µg/mL (≈ 389 µM). The molecule also returned a Solubility in water in series [3] (water) of 75 µg/mL (≈ 154 µM). In addition, the “HPLC purity 1 week Relative to the initial purity” value in series [4] (25° C./60% RH) turned out to be 100.0%; in series [4] (40° C./75% RH), 99.9%; in series [4] (Light illumination 4500 lux), 99.3%; in series [4] (Light illumination 4500 lux, listed as free base crystal form A) it was 99.3%. Also, the figures for the “HPLC purity 1 week” value in series [4] (25° C./60% RH), in series [4] (40° C./75% RH) and in series [4] (Light illumination 4500 lux) were 100.0 Area %, 99.92 Area % and 99.28 Area %, respectively. Moreover, the “HPLC purity, Initial purity” value in series [4] (initial, before storage) was found to be 100.00 Area %.
